Measurements as given in patent US3933800A, “New 3-formylrifamycin SV derivatives” (Gruppo Lepetit S.p.A., priority 1971, dated 1976).

How the values were obtained:
[1] = system: RNA dependent DNA polymerase of murine sarcoma virus (endogenous) and DNA dependent DNA polymerase activity of purified enzymes; test: inhibition of murine sarcoma virus DNA polymerase (3H-dTTP incorporation); assay type: biochemical; conditions: at a concentration of 2-100 μg/ml or less; 60 min
Description: The inhibiting activity of the invention compounds has been tested on RNA dependent DNA polymerase of murine sarcoma virus (endogenous) and DNA dependent DNA polymerase activity of purified enzymes. The inhibition was tested according to the methods described by C. Gurgo et al., Nature, New Biology, 229, 111, 1971.
The effect of different concentrations of drugs on polymerase activity was determined by following 3H-dTTP (tritiated thymine deoxyriboside triphosphate) incorporation into the insoluble fraction. A typical example of the experimental procedures is the following: Isolation of virus and purification of viral polymerase
Virus was isolated and purified from murine sarcoma virus (Moloney isolate) transformed rat cells (78Al cells) and murine sarcoma virus (Harvey isolate) transformed mouse cells (MEH cells) as previously described (Green et al., Proc. Nat. Acad. Sci. USA 67. 385-393, 1970, Rokutanda et al., Nature, 227, 1026-1028, 1970). The virion polymerase was purified 20-40 fold by incubation of purified virus with 0.5% NP-40 (nonidet P-40) in 0.1 M NaCl, 0.01 M Tris buffer (pH 7.6), 0.001 M EDTA for 5 minutes at room temperature and zonal centrifugration in 15-30% sucrose gradients in 10 mM (millimoles) sodium phosphate buffer (pH 7.4), 2.5 mM MgCl2, 10 mM dithiothreitol, and 5% glycerol for 24 hours at 38.000 rpm in a Spinco SW41 rotor. The peak fractions of enzyme activity (13-17) of twenty-two fractions collected, were pooled, and stored at -70°C in 30% glycerol. DNA polymerase assay
Enzyme incubation was performed for 1 hour at 37°C in 100 μl of reaction mixture containing 40 mM Tris buffer (pH 8.0), 5mM dithiothreitol, 30 mM NaCl, 2.5 mM MgCl2, 0.1 mM daTP, dGTP, dCTP, and 10 μCi of ^3 H-dTTP (12-18 Ci/mmole) as described by Green et al., in Proc. Nat. Acad. Sci. US 67, 385-393, 1970. The reaction was terminated by the addition of 150 μ l of 1N perchloric acid. Calf thymus DNA (100 μg) were added as carrier; the radioactive DNA product was processed as described in the two papers mentioned above.
Endogenous RNA dependent DNA polymerase activity was measured after the addition of 0.01% PN-40 to purified virus at the time of assay. The DNA polymerase activity of purified viral polymerase was measured with 2 μg of poly d(A-T) as template and no NP-40. Test for inhibition by rifamycin derivatives
Rifamycin derivatives were dissolved in dimethylsulfoxide (DMSO) at a concentration of 5 mg/ml and stored at 4°C. Inhibition of the endogenous RNA dependent DNA polymerase activity was tested by adding 2 μ l of derivative appropriately diluted in DMSO or 2 μ l of DMSO (control) to the assay mixture prior to addition to disrupted virus which contained 15 to 30 μg of viral protein. Enzyme incubation was performed for 60 minutes at 37°C. Inhibition of purified enzyme was tested by pre-incubation of 2 μl of derivative of DMSO with 30 μl of enzyme (1 to 2 μg protein) for 10 minutes at 37°C; then 70 μ l of substrate mixture were added and the mixture further incubated and processed as described above.

leukemic polymerase = test: inhibition of DNA polymerase of human leukemic blood lymphoblasts; assay type: biochemical; conditions: synthetic RNA template (poly rA.rU)
Source text: Similar results were found by using tumor cell polymerases of human origin. In this case the inhibiting activity was studied also on normal cells polymerases to characterize a selective effect. Representative rifamycin derivatives of formula I have been evaluated for their effects on […] purified DNA polymerase isolated from (I) human normal (PHA stimulated) blood lymphocytes (2) a lymphoblast cell line (derived from a normal donor) and (3) human leukemic blood lymphoblast. Synthetic and/or native templates were used.
Leukemic lymphoblasts were isolated from the peripheral blood of patients with acute lymphocytic leukemia (ALL) by leukophoresis. The cells were washed and erythrocytes removed by hypotonic lysis. Normal lymphocytes were obtained from the peripheral blood from healthy donors after removal of granulocytes by nylon column chromatography. They were stimulated with phytohemagglutinin (PHA) for 72 hours as described before (Gallo et al., Nature, 228, 927, 1970; Gallo et al. Science, 165, 400, 1968) in order to maximize DNA polymerase activity.
Cellular DNA polymerase were extracted and purified from normal blood (PHA stimulated) lymphocytes, and leukemic blood lymphocytes and 1788 lymphoid cells by homogenization in hypotonic buffer followed by Triton X 100 and/or high salt extraction of the extraylsosomal pellet. After differential centrifugation cellular extracts were further purified by DEAE cellulose, phosphocellulose, and Sephadex G 200 column chromatography. DNA polymerase Assays
DNA polymerase assays were carried out in a final volume of 100 μ l. The assay mixture contained Tris-HCl buffer, pH 8.3, 50 mM; MgAc, 6.0 mM; dithiothretiol, 8.0 mM; NaCl, 60 mM. […]
In these cases reactions were initiated by adding enzyme to the complete reaction mixture which included the inhibitor. […] The products were collected on Millipore filter, washed extensively with 5% TCA and 1 ml. of DMSO-ethanol-0.1 M NaCl mixture (0.5:70;29.5), dried and counted in 2 ml. of BBS3 (Beckman) and 10 ml. of liquifluor (New England Nuclear) in a Packard liquid scintillation counter.

[2] = system: polymerase from murine leukemia virus (reverse transcriptase); test: inhibition of polymerase from murine leukemia virus; assay type: biochemical; conditions: endogenous 70S RNA template
Description: The inhibiting effect of reverse transcriptase has been confirmed also by test on polymerase from murine leukemia virus. Murine leukemia virus RNA polymerase was prepared from TRITON X 100 disrupted virions as described by Gallo et al., Nature, New Biology, 232, 141 (1971). Virus of both Rauscher and Moloney types were previously purified by banding in the 1.16 g/ml region of a sucrose density gradient after initial low speed centrifugation to remove cellular debris and cushioning on 60% sucrose through 20% sucrose. Final concentration of virus preparation was at 10^11 particles/ml. As template endogenous 70S RNA was used.

[3] = system: bacteria which had become resistant to the other rifamycins; conditions: namely rifampicin; cited from earlier work
bacteria = conditions: cited from earlier work

Structure (SMILES)	incorporation of 3H-dTTP relative to control tests [1]	susceptibility compared with synthetic DNA template (leukemic polymerase)	concentration giving inhibition of about 50 percent [2] [µg/mL]	effect against resistant bacteria [3]	antibacterial activity (bacteria)
CCCCCON=Cc1c2c(O)c3c(O)c(C)c4c(c3c1O)C(=O)C(C)(OC=CC(OC)C(C)C(OC(C)=O)C(C)C(O)C(C)C(O)C(C)C=CC=C(C)C(=O)N2)O4 (stereo not drawn) [Example 5]	less than 10%	even more susceptible	10 to 25		
COC1C=COC2(C)Oc3c(C)c(O)c4c(O)c(c(C=NOCCc5ccccc5)c(O)c4c3C2=O)NC(=O)C(C)=CC=CC(C)C(O)C(C)C(O)C(C)C(OC(C)=O)C1C (stereo not drawn) [Example 13]	less than 10%				
COC1C=COC2(C)Oc3c(C)c(O)c4c(O)c(c(C=NOCCCc5ccccc5)c(O)c4c3C2=O)NC(=O)C(C)=CC=CC(C)C(O)C(C)C(O)C(C)C(OC(C)=O)C1C (stereo not drawn) [Example 14]	less than 10%	even more susceptible	10 to 25		
CCCCCCCCON=Cc1c2c(O)c3c(O)c(C)c4c(c3c1O)C(=O)C(C)(OC=CC(OC)C(C)C(OC(C)=O)C(C)C(O)C(C)C(O)C(C)C=CC=C(C)C(=O)N2)O4 (stereo not drawn) [Example 6]	less than 10%	even more susceptible	10 to 25		
COC1C=COC2(C)Oc3c(C)c(O)c4c(O)c(c(C=NO)c(O)c4c3C2=O)NC(=O)C(C)=CC=CC(C)C(O)C(C)C(O)C(C)C(OC(C)=O)C1C (stereo not drawn) [oxime of 3-formylrifamycin SV]				practically no effect	good antibacterial activity
COC1C=COC2(C)Oc3c(C)c(O)c4c(O)c(c(C=NOC(c5ccccc5)c5ccccc5)c(O)c4c3C2=O)NC(=O)C(C)=CC=CC(C)C(O)C(C)C(O)C(C)C(OC(C)=O)C1C (stereo not drawn) [Example 16]	less than 10%				
COC1C=COC2(C)Oc3c(C)c(O)c4c(O)c(c(C=NOCCN5CCOCC5)c(O)c4c3C2=O)NC(=O)C(C)=CC=CC(C)C(O)C(C)C(O)C(C)C(OC(C)=O)C1C (stereo not drawn) [O-morpholinoethyl]				practically no effect	good antibacterial activity
CON=Cc1c2c(O)c3c(O)c(C)c4c(c3c1O)C(=O)C(C)(OC=CC(OC)C(C)C(OC(C)=O)C(C)C(O)C(C)C(O)C(C)C=CC=C(C)C(=O)N2)O4 (stereo not drawn) [O-methyl]				practically no effect	good antibacterial activity
CCCCON=Cc1c2c(O)c3c(O)c(C)c4c(c3c1O)C(=O)C(C)(OC=CC(OC)C(C)C(OC(C)=O)C(C)C(O)C(C)C(O)C(C)C=CC=C(C)C(=O)N2)O4 (stereo not drawn) [Example 4]	less than 10%				
